From ChEMBL document CHEMBL1144945, “Development of progesterone receptor antagonists from 1,2-dihydrochromeno[3,4-f]quinoline agonist pharmacophore” (Bioorg Med Chem Lett, 2003)
Calls of active or inactive are those of the source.

Key:
[1] = target: T1, Progesterone receptor (Homo sapiens, UniProt P06401); assay: Binding towards human progesterone receptor
T1 sequence (P06401 whole entry): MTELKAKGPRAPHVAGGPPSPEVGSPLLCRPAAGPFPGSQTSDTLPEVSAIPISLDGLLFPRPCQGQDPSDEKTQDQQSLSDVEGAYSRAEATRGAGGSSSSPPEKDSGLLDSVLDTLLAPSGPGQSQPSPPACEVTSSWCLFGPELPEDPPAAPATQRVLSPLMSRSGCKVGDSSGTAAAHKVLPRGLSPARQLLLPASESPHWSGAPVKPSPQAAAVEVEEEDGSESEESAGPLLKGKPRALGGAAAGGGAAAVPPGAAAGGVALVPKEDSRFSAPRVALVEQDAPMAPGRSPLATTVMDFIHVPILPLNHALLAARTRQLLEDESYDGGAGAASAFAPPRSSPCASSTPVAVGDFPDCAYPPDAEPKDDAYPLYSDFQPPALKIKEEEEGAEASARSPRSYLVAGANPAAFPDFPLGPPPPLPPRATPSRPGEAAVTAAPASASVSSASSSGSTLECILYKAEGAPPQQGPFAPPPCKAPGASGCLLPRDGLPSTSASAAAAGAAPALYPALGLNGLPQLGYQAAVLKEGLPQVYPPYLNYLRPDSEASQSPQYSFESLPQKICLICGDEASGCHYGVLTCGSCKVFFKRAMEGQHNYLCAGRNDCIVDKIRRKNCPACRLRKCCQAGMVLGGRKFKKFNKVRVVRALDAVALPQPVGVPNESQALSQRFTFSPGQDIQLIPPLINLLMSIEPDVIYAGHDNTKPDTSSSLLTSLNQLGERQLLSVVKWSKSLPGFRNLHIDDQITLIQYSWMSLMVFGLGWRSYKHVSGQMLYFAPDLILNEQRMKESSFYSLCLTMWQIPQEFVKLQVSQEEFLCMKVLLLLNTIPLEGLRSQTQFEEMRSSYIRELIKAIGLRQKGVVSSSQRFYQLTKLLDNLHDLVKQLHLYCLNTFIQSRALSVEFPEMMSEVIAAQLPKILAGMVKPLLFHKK

[2] = target: T2, Mineralocorticoid receptor (Homo sapiens) (UniProt P08235); assay: Antagonist efficacy for mineralocorticoid receptor (hMR); Not active; type: functional
T2 sequence (whole entry): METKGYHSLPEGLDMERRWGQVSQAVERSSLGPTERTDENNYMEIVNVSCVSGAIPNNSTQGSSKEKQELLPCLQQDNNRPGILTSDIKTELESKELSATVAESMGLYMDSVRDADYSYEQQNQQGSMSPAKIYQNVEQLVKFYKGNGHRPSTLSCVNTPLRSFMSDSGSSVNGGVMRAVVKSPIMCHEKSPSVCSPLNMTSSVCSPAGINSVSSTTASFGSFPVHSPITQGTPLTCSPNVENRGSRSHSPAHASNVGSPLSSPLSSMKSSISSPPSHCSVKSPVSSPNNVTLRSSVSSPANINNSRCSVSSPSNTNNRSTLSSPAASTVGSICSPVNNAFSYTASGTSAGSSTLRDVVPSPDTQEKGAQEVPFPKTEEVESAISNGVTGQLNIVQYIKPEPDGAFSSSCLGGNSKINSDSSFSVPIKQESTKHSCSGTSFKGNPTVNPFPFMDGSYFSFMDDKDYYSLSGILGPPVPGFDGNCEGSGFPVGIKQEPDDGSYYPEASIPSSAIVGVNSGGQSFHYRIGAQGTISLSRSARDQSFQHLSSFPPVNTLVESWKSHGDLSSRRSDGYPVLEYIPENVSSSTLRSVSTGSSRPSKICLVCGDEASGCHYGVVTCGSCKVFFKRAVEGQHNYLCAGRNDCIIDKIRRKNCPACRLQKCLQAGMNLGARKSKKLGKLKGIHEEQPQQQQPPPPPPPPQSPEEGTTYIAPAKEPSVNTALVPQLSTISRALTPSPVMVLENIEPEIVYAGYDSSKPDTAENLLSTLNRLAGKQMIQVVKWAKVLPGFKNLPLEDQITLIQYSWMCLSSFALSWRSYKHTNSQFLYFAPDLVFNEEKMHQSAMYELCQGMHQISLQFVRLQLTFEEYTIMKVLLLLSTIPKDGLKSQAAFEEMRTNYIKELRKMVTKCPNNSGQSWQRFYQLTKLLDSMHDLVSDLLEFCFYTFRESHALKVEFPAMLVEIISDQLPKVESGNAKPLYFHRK

[3] = target: T3, Mineralocorticoid receptor (Homo sapiens, UniProt P08235); assay: Inhibition of antagonist activity towards mineralocorticoid receptor (hMR); Not active; type: functional
T3 sequence (P08235 whole entry): T2 sequence (whole entry)

[4] = target: Estrogen receptor (Homo sapiens) (UniProt Q92731+P03372); assay: Antagonist efficacy for Estrogen receptor; Not active; type: functional
[5] = target: T1, Progesterone receptor
Description: Binding affinity at human progesterone receptor.

[6] = target: T1, Progesterone receptor; remark: listed apart in the source
Description: Antagonistic activity at human progesterone receptor in CV-1 cells.

[7] = target: T4, Progesterone receptor (Homo sapiens) (UniProt P06401); assay: Agonist efficacy for human progesterone receptor in T47D human breast cancer cell; not active (<20% efficacy and/or >10 mM potency); type: functional, cell-based
T4 sequence (whole entry): T1 sequence (P06401 whole entry)

[8] = target: T1, Progesterone receptor; assay: Effective concentration for human progesterone receptor in T47D human breast cancer cell; not active (<20% efficacy and/or >10 mM potency); details: cancer cell lines
[9] = target: T1, Progesterone receptor; remark: listed apart in the source
Description: Inhibition of human progesterone receptor activation in T47D human breast cancer cell.

| Ki [1] [nM] | Efficacy [2] | IC50 [3] | Efficacy [4] | Ki [5] [nM] | EC50 [6] [nM] | Efficacy [7] | EC50 [8] | IC50 [9] [nM] | Structure (SMILES) | IC50 ([3]; read-out: IC50) |
| --- | --- | --- | --- | --- | --- | --- | --- | --- | --- | --- |
| 5.6 | inactive | Not Active | – | – | – | – | – | – | CC1=CC(C)(C)Nc2ccc3c(c21)COc1c(F)cc(Cl)cc1-3 | – |
| 13.5 | inactive | Not Active | – | – | – | – | – | – | CC1=CC(C)(C)Nc2ccc3c(c21)COc1c(F)cc(F)cc1-3 | – |
| – | inactive | Not Active | inactive | 12.4 | 57 | inactive | Not Active | 461 | CC1=CC(C)(C)Nc2ccc3c(c21)COc1c(F)cc(Br)cc1-3 | – |

More lines, now with the values behind:

| Structure (SMILES) | Ki [1] [nM] | Efficacy [2] | IC50 [3] | Efficacy [4] | Ki [5] [nM] | EC50 [6] [nM] | Efficacy [7] | EC50 [8] | IC50 [9] [nM] | IC50 ([3]; read-out: IC50) |
| --- | --- | --- | --- | --- | --- | --- | --- | --- | --- | --- |
| CC1CC(C)(C)Nc2ccc3c(c21)COc1c(F)cc(F)cc1-3 (stereo not given) | – | inactive | Not Active | inactive | 45 | 40 | inactive | Not Active | 217 | – |
| CC1CC(C)(C)Nc2ccc3c(c21)COc1ccc([N+](=O)[O-])cc1-3 (stereo not given) | – | 58% | – | inactive | 144 | 52 | inactive | Not Active | 104 | 2870 nM (not active) |
